This is an account of results in patent publication US20110028758A1, “Trans-cinnamic acid derivative, its preparation mathod and the use” (priority 2007, published 2011).

For series [1], the system named is human normal embryonic kidney HEK-293 cells. Description: MTT test on normal cells, HEK-293. It counts as cell-based. The conditions noted are these: for IC50: Homo sapiens; for inhibitory effect on HEK-293 cells: at concentrations having 50% inhibitory effect on the tumor cells. An excerpt: (§1) A complete culture medium is used for diluting the above original solution into corresponding concentrations for later use.
(§2) Human cervical carcinoma Hela cells, human hepatoma BEL-7402 cells, mucinous Human epidermoid A549 lung cancer cells, human breast cancer MCF-7/S cells, human glioma U251 cells, and human normal embryonic kidney HEK-293 cells are purchased from USA, American Type Culture Collection (ATCC). All the tumor cells are used the DMEM medium (containing 10% FBS, 100 U/ml penicillin and 100 μg/ml streptomycin) for culturing and subculturing, and HEK-293 cells are using RPMI1640 medium (10% FBS, 100 U/ml penicillin, and 100 μg/ml streptomycin) for culturing and subculturing, wherein the culture condition is in a 5% CO2 incubator at 37° C.
Subculture six kinds of cells, which has a logarithmic growing period, adherent rate about 80%, and in good condition, such as human cervical carcinoma Hela cells, human hepatoma BEL-7402 cells, mucinous Human epidermoid A549 lung cancer cells, human breast cancer MCF-7/S cells, human glioma U251 cells, and human normal embryonic kidney HEK-293 cells. […] Repeat the above experiment three times to get an average value.
(§3) IR %=(1−ODsampale/ODcontrol)×100%
(Formazan colour is commonly taken as a measure of viable cells.)

Series [2] relates to human hepatoma BEL-7402 cells. Description: MTT anti-tumor test in vitro, BEL-7402. It counts as cell-based. The conditions noted are these: Homo sapiens, Bel-7402, 48 h, Bel- (BEL-7402).
Source text: as §1, §2
Subculture six kinds of cells, which has a logarithmic growing period, adherent rate about 80%, and in good condition, such as human cervical carcinoma Hela cells, human hepatoma BEL-7402 cells, mucinous Human epidermoid A549 lung cancer cells, human breast cancer MCF-7/S cells, human glioma U251 cells, and human normal embryonic kidney HEK-293 cells. Discard the culture medium, rinse 1-2 times with PBS to remove serum, add 1 ml 0.25% Trypsin-0.01% EDTA (37° C. incubation) to digest for 1-2 minutes, add FBS culture medium to terminate the above digestion, centrifuge at a speed below 800 r/min for 2-3 minutes and discard the supernatant, re-suspended cells in 10% FBS medium, tack the cell suspension liquid for cell counting, adjust the density of the above liquid to 1×10^5/ml, then inoculate to a 96-holes plates (100 μl/hole), and then incubate in 5% CO2 incubator at 37° C. overnight. The next day add above cells to different concentrations of I-a, I-b, I-c and I-d, 100 μl/hole (its final concentration is respectively 30, 60, 120, 240, 480 μg/ml); meanwhile, set up the blank control group (0 μM), and establish 3 holes. Continuing the cultural process, discard the culture medium after 48 hours that the drug has been effected, add 100 μl PBS of 0.5 mg/ml MTT (PH 7.2) into each holes, after 4 hours culture, remove the culture medium by adherent cells express flipping method, add 100 μl of DMSO to each holes, oscillate it by micro-oscillation device for 5 minutes, and measure the OD value at 490 nm wavelength. Repeat the above experiment three times to get an average value. Calculate the inhibition rate (IR %) of the tumor cell proliferation in vitro from different concentrations of I-a, I-b, I-c, I-d by the following formula:
as §3
Use SPSS11.5 software to calculate the half inhibitory concentration IC50 of I-a, I-b, I-c and I-d. The results are shown in Table 2 to illustrate IC50 values (unit: μg/ml) of the four compounds.

On series [3], the source says: The 180 tumor-bearing mice are divided into 18 groups by the weigh of the mice, wherein each group has 10 mice (half male and half female). The drug delivery methods of each group are shown in Table 3 to illustrate eighteen groups of mice drug delivery situation.
Group 2 is the cyclophosphamide (CTX) group, and the mice of group 2 are only given the cyclophosphamide in the intraperitoneal of the mice on the second day of the tumor-bearing.
Group 3 to 18 groups are given the four compounds respectively, wherein the groups delivered 25 mg/kg drug are tail vein low-dose group, wherein the groups delivered 50 mg/kg drugs are the tail vein medium-dose group, wherein the groups delivered 100 mg/kg drugs are the tail vein high-dose group, wherein the groups delivered 200 mg/kg drugs are the oral enteral group. These mice from group 3 to 18 start the drug delivery on the second day of the tumor-bearing, and delivered once a day for 10 sequent days.
After the drug delivery, weight the mice weight, then execute the mice, and then weight the spleen and thymus weight by electronic weighting scale respectively. The spleen index and thymus index are the weight (mg) of mice spleen, thymus of each group/mice weight (g).

Setting [4] is: HEK293, 48 h, HEK- (HEK-293), average of three experiments ± SD, MTT, 48 hours, read-out: IC50 value.
Where [5] appears, read: HEK293, 48 h, HEK- (HEK-293), experiment 1, MTT, 48 hours, read-out: IC50 value.
Where [6] appears, read: HEK293, 48 h, HEK- (HEK-293), experiment 2, MTT, 48 hours, read-out: IC50 value.
Setting [7] is: HEK293, 48 h, HEK- (HEK-293), experiment 3, MTT, 48 hours, read-out: IC50 value.
Setting [8] is: average of three experiments ± SD.
Setting [9] is: HEK293, text, read-out: HEK-293 cells IC50 values.

≈ marks a conversion by molar mass, not a printed value. Where two headings read alike, the source gives them in different places.

In the case of `COc1ccc(/C=C\C(=O)O)c(OC)c1CC=C(C)C` [I-b, (Z)-2,4-dimethoxy-3-isopentenyl-cinnamic acid], the IC50 (in general, the concentration at which inhibition is half-maximal) in series [1] (setting [4]) amounted to 365 ± 6.14 µg/mL (≈ 1320 µM); in series [1] (setting [5]), 358 µg/mL (≈ 1300 µM); in series [1] (setting [6]), 371 µg/mL (≈ 1340 µM); in series [1] (setting [7]), 366 µg/mL (≈ 1320 µM); in series [2] (setting [8]), 346 ± 10.1 µg/mL (≈ 1250 µM); in series [2] (experiment 1) it was 343 µg/mL (≈ 1240 µM). For the same compound, the IC50 in series [2] (experiment 2) was 357 µg/mL (≈ 1290 µM); in series [2] (experiment 3), 338 µg/mL (≈ 1220 µM).
With `COc1ccc(/C=C/C(=O)O)c(OC)c1CC=C(C)C` [I-c, (E)-2,4-dimethoxy-3-isopentenyl-cinnamic acid], the “effect near the tail vein of the mice and its surrounding tissue” value in series [3] (mouse, in vivo) is reported as “irritation or corrosive”. Further, the “splenomegaly of the tumor-bearing mice” value in series [3] (mouse, in vivo) is given as “can cause the splenomegaly”. Also, the IC50 in series [1] (setting [4]) worked out at 369 ± 13.6 µg/mL (≈ 1340 µM); in series [1] (setting [5]) it was 383 µg/mL (≈ 1390 µM); in series [1] (setting [6]), 367 µg/mL (≈ 1330 µM); in series [1] (setting [7]), 356 µg/mL (≈ 1290 µM); in series [1] (setting [9]), 369 ± 13.6 µg/mL (≈ 1340 µM); in series [2] (setting [8]) it was 313 ± 11.7 µg/mL (≈ 1130 µM). In addition, the concentration for half-maximal inhibition (IC50) in series [2] (experiment 1) came out at 315 µg/mL (≈ 1140 µM); in series [2] (experiment 2) it was 300 µg/mL (≈ 1090 µM); in series [2] (experiment 3), 323 µg/mL (≈ 1170 µM). For the same compound, the “inhibitory effect on HEK-293 cells” value in series [1] is listed as “unobvious”.
With `COc1ccc(/C=C/C(=O)O)c(O)c1CC=C(C)C` [I-a, (E)-2-hydroxy-4-methoxy-3-isopentenyl-cinnamic acid], the “death during drug delivery” value in series [3] (high-dose group, tail vein 100 mg/kg, 10 days) is recorded as “does not have any death”. Further, the “splenomegaly of the tumor-bearing mice” value in series [3] (mouse, in vivo) was “no affect”. Besides, the IC50 in series [1] (setting [4]) was determined as 404 ± 9.2 µg/mL (≈ 1540 µM); in series [1] (setting [6]), 399 µg/mL (≈ 1520 µM); in series [1] (setting [7]), 414 µg/mL (≈ 1580 µM); in series [1] (setting [9]), 404 ± 9.2 µg/mL (≈ 1540 µM); in series [2] (setting [8]) it was 249 ± 17.9 µg/mL (≈ 950 µM); in series [2] (experiment 2), 237 µg/mL (≈ 904 µM). Further, in series [2] (experiment 3), the IC50 was 269 µg/mL (≈ 1030 µM). Moreover, the “inhibitory effect on HEK-293 cells” value in series [1] is “unobvious”.
